Assay results as given in ChEMBL document CHEMBL6121062, “Discovery, Optimization, and Preclinical Pharmacology of EP652, a METTL3 Inhibitor with Efficacy in Liquid and Solid Tumor Models” (J Med Chem, 2025).

Columns and labels:
[1] = biological target: METTL3/METTL14 (Homo sapiens, UniProt Q86U44); experiment: Displacement of [3H]-SAM from METTL3/METTL14 (unknown origin) using 5'biotinylated-UACACUCGAUCUGGACUAAAGGUGCUC-3' RNA as substrate preincubated for 10 mins followed by substrate/[3H]-SAM addition measured after 90 mins by SPA; assay type: protein-complex assay
[2] = system: Kasumi 1; experiment: Antiproliferative activity against human Kasumi 1 cells assessed as inhibition of cell viability incubated for 72 hrs by ATPlite assay; assay type: functional, cell-based; conditions: Kasumi 1, 72 h
[3] = Lipophilicity, logD of compound in 1-octanol/PBS at pH 7.4 incubated for 24 hrs by HPLC analysis; assay type: physicochemical
[4] = Unbound clearance in Sprague-Dawley rat at 1 mg/kg/day, iv measured for 24 hrs by LC-MS/MS analysis; assay type: ADME, organism-based; conditions: in vivo
[5] = Unbound AUC in Sprague-Dawley rat at 1 mg/kg/day, iv measured for 24 hrs by LC-MS/MS analysis; assay type: ADME, organism-based; conditions: in vivo
[6] = Unbound fraction in Sprague-Dawley rat plasma at 1 mg/kg/day, iv measured for 24 hrs by LC-MS/MS analysis; assay type: ADME, organism-based; conditions: in vivo

Sequence of METTL3/METTL14 (Q86U44 whole entry): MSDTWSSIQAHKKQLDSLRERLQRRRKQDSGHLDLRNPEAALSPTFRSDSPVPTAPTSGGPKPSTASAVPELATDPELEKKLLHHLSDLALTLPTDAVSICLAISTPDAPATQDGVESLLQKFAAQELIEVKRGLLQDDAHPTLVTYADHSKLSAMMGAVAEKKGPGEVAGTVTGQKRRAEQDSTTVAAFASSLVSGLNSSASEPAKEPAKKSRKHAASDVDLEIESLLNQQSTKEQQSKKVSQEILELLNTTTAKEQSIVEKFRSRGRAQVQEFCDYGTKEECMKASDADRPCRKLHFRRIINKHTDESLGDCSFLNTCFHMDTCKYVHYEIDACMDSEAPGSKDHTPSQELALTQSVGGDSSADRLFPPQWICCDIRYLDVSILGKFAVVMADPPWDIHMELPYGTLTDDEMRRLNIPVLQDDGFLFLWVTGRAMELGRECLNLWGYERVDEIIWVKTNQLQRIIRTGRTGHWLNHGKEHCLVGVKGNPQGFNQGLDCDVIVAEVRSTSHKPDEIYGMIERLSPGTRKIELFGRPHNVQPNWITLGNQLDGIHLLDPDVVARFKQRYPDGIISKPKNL
Sequence of METTL3/METTL14 (Q9HCE5 whole entry, further chain): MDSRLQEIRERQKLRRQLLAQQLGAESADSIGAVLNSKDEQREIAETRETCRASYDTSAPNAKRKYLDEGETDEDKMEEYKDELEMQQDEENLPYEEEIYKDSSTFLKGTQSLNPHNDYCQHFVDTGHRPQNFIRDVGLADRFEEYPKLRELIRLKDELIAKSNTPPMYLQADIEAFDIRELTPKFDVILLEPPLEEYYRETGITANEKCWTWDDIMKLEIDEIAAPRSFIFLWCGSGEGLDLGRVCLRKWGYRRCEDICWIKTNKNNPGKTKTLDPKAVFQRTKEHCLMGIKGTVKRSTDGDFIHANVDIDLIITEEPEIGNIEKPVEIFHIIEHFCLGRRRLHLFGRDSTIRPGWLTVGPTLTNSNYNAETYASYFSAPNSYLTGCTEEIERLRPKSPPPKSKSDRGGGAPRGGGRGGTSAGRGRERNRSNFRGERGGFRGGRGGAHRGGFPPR

| SMILES | IC50 [1] | IC50 [2] | logD at 24 h [3] | CL free [4] | fAUC [5] | Fu [6] |
| --- | --- | --- | --- | --- | --- | --- |
| COc1cncc(-c2cn(C3(c4ccc(N5CCC[C@@H](NCC6CCC6)C5)nn4)CC3)nn2)c1 | 25 nM | 9880 nM | 1.7 |  |  |  |
| COc1cncc(-c2cn(Cc3ccc(N4CC5(CCCC5NCC5CCC5)C4)nn3)nn2)c1 (centres undefined) | 205 nM | > 30000 nM | 1.85 |  |  |  |
| COc1cc(-c2cn(Cc3ccc(N4CCC[C@@H](N(C)CC5CCC5)C4)nn3)nn2)c2cn[nH]c2c1 |  | 3130 nM | 2.59 |  |  |  |
| COc1cncc(-c2nnc(C(C)n3ccc(N4CCC[C@@H](NCC5CCC5)C4)cc3=O)s2)c1 (some centres undefined) | 3 nM | 506 nM | 1.45 | 480 mL/min/kg |  |  |
| COc1cncc(-c2cn(C(C)(C)c3ccc(N4CCC[C@@H](NCC5CCC5)C4)nn3)nn2)c1 | 6 nM | 2070 nM | 1.69 | 421 mL/min/kg | 4.9 µM·min | 15.3% |
| COc1cncc(-c2ncn(C(C)n3ccc(N4CCC[C@@H](NCC5CCC5)C4)cc3=O)n2)c1 (some centres undefined) | 5 nM | 1610 nM | 1.37 |  |  |  |
| CCOc1cncc(-c2cn(C(C)n3ccc(N4CCC[C@@H](NCC5CCC5)C4)cc3=O)nn2)c1 (some centres undefined) | 2 nM | 302 nM | 2.07 | 1112 mL/min/kg | 2.1 µM·min |  |
| CC(n1cc(-c2cncc(-n3cccn3)c2)nn1)n1ccc(N2CCC[C@@H](NCC3CCC3)C2)cc1=O (some centres undefined) | 2 nM | 301 nM | 1.8 | 529 mL/min/kg | 3.3 µM·min |  |
| C[C@@H](n1cc(-c2cncc(N3CCCC3)n2)nn1)n1ccc(N2CCC[C@@H](NCC3CC3)C2)cc1=O | 1 nM | 13 nM | 1.6 | 443 mL/min/kg | 4.7 µM·min |  |
| COc1cc(-c2cn(Cc3ccc(N4CCC(NCC5CCC5)CC4)nn3)nn2)c2cn[nH]c2c1 | 563 nM | > 30000 nM | 1.64 |  |  |  |
| CC(n1cc(-c2cncc(N(C)C)n2)nn1)n1ccc(N2CCC[C@@H](NCC3CC3)C2)cc1=O (some centres undefined) | 1 nM | 96 nM | 1.17 | 369 mL/min/kg | 5.2 µM·min |  |
| COc1cncc(-c2cn(C(C)c3ccc(N4CCC[C@@H](NCC5CCC5)C4)cn3)nn2)c1 (some centres undefined) | 4 nM | 2100 nM | 1.65 | 263 mL/min/kg | 10.9 µM·min | 14.1% |
| COc1cccc(-c2cn(C(C)n3ccc(N4CCC[C@@H](NCC5CCC5)C4)cc3=O)nn2)c1 (some centres undefined) |  | > 30000 nM | 2.22 |  |  |  |
| COc1cncc(-c2cn(Cc3ccc(N4CCC[C@@H](CNC5CCC5)C4)nn3)nn2)c1 | 124 nM | > 30000 nM | 0.88 |  |  |  |
| COc1cncc(-c2cnn(C(C)n3ccc(N4CCC[C@@H](NCC5CCC5)C4)cc3=O)n2)c1 (some centres undefined) | > 30000 nM | > 30000 nM | 1.84 |  |  |  |
| COc1cc(-c2cn(Cc3ccc(N4CCC[C@@H](NC5CCCC5)C4)nn3)nn2)c2cn[nH]c2c1 |  | 3430 nM | 1.88 |  |  |  |
| CC(n1cc(-c2cncc(C#N)c2)nn1)n1ccc(N2CCC[C@@H](NCC3CCC3)C2)cc1=O (some centres undefined) |  | > 30000 nM | 0.97 |  |  |  |
| COc1cc(-c2cn(Cc3ccc(N4CCC[C@@H](N)C4)nn3)nn2)c2cn[nH]c2c1 | 243 nM | > 30000 nM | 1.01 |  |  |  |
| CC(n1cc(-c2cncc(N(C)C)n2)nn1)n1ccc(N2CCC[C@@H](NCC3CCC3)C2)cc1=O (some centres undefined) | 1 nM | 35 nM | 1.69 | 449 mL/min/kg | 4.7 µM·min |  |
| COc1cc(-c2cn(Cc3ccc(N4CCC[C@H](NCC5CCC5)C4)nn3)nn2)c2cn[nH]c2c1 | 24 nM | 3400 nM | 1.89 |  |  |  |
| COc1cc(-c2cn(Cc3ccc(N4CCC[C@@H](NCC(C)C)C4)nn3)nn2)c2cn[nH]c2c1 | 3 nM | 1760 nM | 1.92 |  |  |  |
| CC(n1cc(-c2cncc(N(C)C)c2)nn1)n1ccc(N2CCC[C@@H](NCC3CCC3)C2)cc1=O (some centres undefined) |  | 44 nM | 1.79 | 803 mL/min/kg | 2.2 µM·min |  |
| COc1cncc(-c2cn(C(C)n3ccc(N4CCC[C@@H](NCC5CCC5)C4)cc3=O)cn2)c1 (some centres undefined) |  | 453 nM | 1.52 | 487 mL/min/kg |  |  |
| COc1cncc(-c2cn(C(C)n3ccc(N4CCC[C@@H](NCC5CCC5)C4)cc3=O)nn2)n1 (some centres undefined) | 3 nM | 656 nM | 1.65 | 413 mL/min/kg | 6.1 µM·min |  |
| COc1ccc(-c2cn(C(C)n3ccc(N4CCC[C@@H](NCC5CCC5)C4)cc3=O)nn2)cn1 (some centres undefined) | > 30000 nM | > 30000 nM | 1.69 |  |  |  |
| COc1cncc(-n2cnc(C(C)n3ccc(N4CCC[C@@H](NCC5CCC5)C4)cc3=O)c2)c1 (some centres undefined) | > 30000 nM | > 30000 nM | 1.25 |  |  |  |
